Experimental data published in US20190314407A1, “COMPOSITIONS AND METHODS FOR THE EXPANSION OF HEMATOPOIETIC STEM AND PROGENITOR CELLS” (Magenta Therapeutics Inc., priority 2017, published 2019).

Columns and labels:
[1] = tested on: CD34+ cells from mPB and bone marrow (BM); experiment: Ex vivo expansion of lentivirally transduced or CRISPR/Cas9 B2M-edited CD34+ cells (Example 2); format: cell-based, human; settings: AHR antagonist = Compound 26
Protocol: Lentiviral Transduction: Cryopreserved CD34+ cells from mobilized peripheral blood (mPB) were thawed and cultured overnight in media with cytokines and either vehicle (DMSO) or the AHR antagonist (expanded). The following day, cells were plated on retronectin-coated plates and transduced with a lentiviral vector, containing a green fluorescent protein (GFP) transgene under the control of the MND promoter, at an MOI of 50 in the presence of vehicle or the AHR antagonist. 24 hours later, cells were harvested, washed, and resuspended in media with cytokines and the appropriate compound.
CRISPR/Cas9 Editing and Expansion: Cryopreserved CD34+ cells from mPB and bone marrow (BM) were thawed and cultured overnight in media with cytokines and either vehicle or the AHR antagonist. Cells were electroporated with Cas9 protein (Aldevron) and synthetic, chemically-modified gRNA (Synthego) targeting beta-2-microglobulin (B2M) as a ribonucleotide protein (RNP).

NSG mice [2] = experiment: Transplant of expanded cells into sub-lethally irradiated NSG mice, engraftment and editing rates by flow cytometry (Example 1); format: in vivo, mouse; settings: for engraftment in NSG mice: relative to vehicle-cultured CB derived CD34+ cells
Protocol: (§1) Methods. […] Cell number and immunophenotype were assessed by flow cytometry, and HSC function was evaluated by cell and molecular assays in vitro. The expanded cells were transplanted into sub-lethally irradiated NSG mice to evaluate engraftment potential in vivo. For editing studies, mPB and BM CD34+ cells were electroporated with CRISPR/Cas9 RNPs targeting the beta-2 microglobulin (B2M) cell surface protein. Editing rates were evaluated by flow cytometry based on loss of protein expression and TIDE analysis. Edited cells were expanded in the presence of AHR antagonist or vehicle and transplanted into NSG mice. The AHR antagonist used in the experiments described in this Example is Compound 26 herein. Engraftment and editing rates were evaluated by flow cytometry of the peripheral blood and bone marrow.

[3] = tested on: CD34+CD90+ mobilized peripheral blood cells; experiment: Cell cycle phase of CD34+CD90+ cells in culture, mobilized peripheral blood (Example 5); format: cell-based; settings: cytokines, same in presence or absence of Compound 26 (500 nM)
[4] = tested on: primary human CD34+ cells; experiment: Ex vivo expansion of primary human CD34+ cells in the presence of cytokines (Example 1); format: cell-based; settings: relative to vehicle-cultured CB derived CD34+ cells
Protocol: as §1

[5] = tested on: mPB and BM derived CD34+ cells; experiment: Expansion of CRISPR/Cas9 B2M-edited mPB and BM CD34+ cells (Example 1); format: cell-based, human; settings: 7 days of expansion, AHR antagonist = Compound 26
Protocol: as §1

NSG mice [6] = experiment: Transplant of gene-modified, expanded CD34+ cells into NSG mice (Example 2); format: in vivo, mouse; settings: AHR antagonist = Compound 26
Text: Transplant into NSG mice: All of the progeny from cultured cells were transplanted into sub-lethally irradiated, female, 6-8 week old NSG mice. Engraftment and transduction/editing rates were monitored monthly by flow cytometry. “Minimally manipulated” controls were transplanted one day after editing for a total culture time of 2 days.

[7] = tested on: CD34+CD90+ cord blood cells; experiment: Cell cycle phase of CD34+CD90+ cells in culture, cord blood (Example 5); format: cell-based; settings: cytokines, same in presence or absence of Compound 26 (500 nM)
AHR = biological target: T1, AHR (Homo sapiens, UniProt P35869); experiment: Dioxin response element luciferase reporter assay; format: cell-based
T1 sequence (P35869 11-848): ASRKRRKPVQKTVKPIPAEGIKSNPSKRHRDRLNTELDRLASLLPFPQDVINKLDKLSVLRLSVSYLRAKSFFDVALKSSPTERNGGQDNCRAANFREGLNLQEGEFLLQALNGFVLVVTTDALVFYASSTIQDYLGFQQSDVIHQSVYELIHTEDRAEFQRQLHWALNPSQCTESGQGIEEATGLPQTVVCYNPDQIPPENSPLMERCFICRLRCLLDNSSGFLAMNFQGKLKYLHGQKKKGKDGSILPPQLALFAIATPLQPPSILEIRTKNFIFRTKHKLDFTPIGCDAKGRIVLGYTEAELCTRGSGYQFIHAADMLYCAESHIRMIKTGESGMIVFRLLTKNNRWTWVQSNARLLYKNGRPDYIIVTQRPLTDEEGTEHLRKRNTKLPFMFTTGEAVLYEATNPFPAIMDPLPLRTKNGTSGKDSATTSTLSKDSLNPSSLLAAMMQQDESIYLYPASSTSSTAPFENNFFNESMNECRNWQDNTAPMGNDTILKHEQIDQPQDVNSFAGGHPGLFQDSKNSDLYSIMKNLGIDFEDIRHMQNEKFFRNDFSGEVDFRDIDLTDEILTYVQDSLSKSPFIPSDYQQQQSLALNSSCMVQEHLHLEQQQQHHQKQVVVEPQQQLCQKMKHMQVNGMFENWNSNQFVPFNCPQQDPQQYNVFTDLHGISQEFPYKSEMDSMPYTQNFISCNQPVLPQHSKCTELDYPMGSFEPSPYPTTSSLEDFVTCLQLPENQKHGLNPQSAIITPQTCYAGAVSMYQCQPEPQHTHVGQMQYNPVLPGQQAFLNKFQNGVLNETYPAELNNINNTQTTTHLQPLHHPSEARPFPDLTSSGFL

[8] = tested on: mobilized peripheral blood (mPB) CD34+ cells; experiment: Gene correction rate after prestimulation and electroporation with gRNA/Cas9 and oligonucleotide donor (Example 5); format: cell-based; settings: mPB cells prestimulated 4 days in the presence of Compound 26 versus 1 day prior to electroporation; FIG. 13A
Protocol: Mobilized peripheral blood (mPB) CD34+ or cord blood (CB) CD34+ cells were thawed and pre-stimulated, i.e., cultured, in serum-free media (SFEM media supplemented with cytokines SCF, IL6, TPO, and FLT3L) in the presence or absence of Compound 26 (500 nM). Cells were pre-stimulated 1, 2, 3, or 4 days prior to electroporation with gRNA/Cas9 and oligonucleotide donor. Cells were cultured for an additional 8 days after electroporation and profiled at 2, 4, 6, or 8 days post-electroporation using a Trucount-based method of HSC quantification of CD34, CD90, and CD45RA. Cells were subcultured to maintain cell density at less than 1×10^6 cells/mL. On day 8, genomic DNA was extracted from bulk cell cultures, and correction rate was assessed by qPCR. Number of corrected cells was determined by number of total cells at the indicated timepoint multiplied by the correction rate for that pre-stimulation condition.

[9] = mPB CD34+ cells, 7 days culture, FIGS. 2A-2D
[10] = B2M-edited expanded cells, AHR antagonist = Compound 26

SMILES: COCCC(C)c1cnc2c(NCCc3c[nH]c4ccccc34)nc(-c3cncc(F)c3)cn12 (stereo not shown) [Compound 26]
- quantity of GFP+CD34+CD90+ cells ([1]; GFP lentivirus-transduced mPB CD34+ cells, 7 days, versus vehicle or no treatment): increased the quantity of GFP+CD34+CD90+ cells to a greater extent than vehicle treatment
- editing rates ([1]; both mPB and BM CD34+ cells, CRISPR/Cas9 B2M): 80%
- quantities of total cells, CD34+ cells, and CD34+CD90+ cells relative to vehicle-treated and untreated cells ([1]; cells subject to CRISPR/Cas9-mediated B2M editing, FIGS. 5A-5E): substantially higher quantities
- quantities of total cells, CD34+ cells, and CD34+CD90+ cells relative to vehicle-treated and untreated cells ([1]; cells subject to lentiviral transduction, FIGS. 3A-3E): substantially higher quantities
- quantity of CD34+CD90+ cells relative to vehicle-treated and untreated cells [1, 9]: substantial increase
- total quantity of cells relative to vehicle-treated cells [1, 9]: increase in the total quantity of cells
- human cells in the periphery of the mice showing loss of target protein (average) (NSG mice [2]; [10]): > 75%
- increase in engraftment compared to mice receiving vehicle-treated cells (NSG mice [2]; [10]): greater than 2 fold
- engraftment in NSG mice (NSG mice [2]): significant increase
- days in culture after which substantially all CD34+CD90+ cells exit the G0 phase and enter the replicative cell cycle [3]: about 3 days
- increase in CD34+ number [4]: 6 fold
- CD34+CD90+ cells in expanded culture versus vehicle-treated cells ([5]; B2M-edited cells): 3.4 fold
- loss of the target protein (B2M) ([5]; mPB and BM CD34+ cells edited with CRISPR/Cas9 RNPs): 84%
- retention of B2M− phenotype relative to vehicle-treated cells following transplantation (NSG mice [6]; NSG mice): greater retention
- improvement in engraftment compared to vehicle-cultured cells (NSG mice [6]; edited, expanded cells, both the PB and BM of mice after 16 weeks): greater than 2 fold
- engraftment rates relative to minimally-manipulated cells (NSG mice [6]; expanded, edited mPB and BM cells, FIGS. 7A-7N): higher engraftment rates
- editing rates following transplantation into NSG mice (NSG mice [6]; mPB and BM CD34+ cells): maintained
- engraftment compared to minimally manipulated and vehicle controls (NSG mice [6]; mPB and BM hematopoietic stem cells transplanted into NSG mice): increased engraftment
- engraftment rates relative to vehicle-cultured cells (NSG mice [6]; transduced/edited, expanded mPB cells in NSG mice): higher engraftment rates
- days in culture after which substantially all CD34+CD90+ cells exit the G0 phase and enter the replicative cell cycle [7]: about 3 days
- AHR antagonism in the dioxin response element luciferase reporter assay (AHR): complete AHR antagonism
- increase in potency compared to SR1 (AHR; dioxin response element luciferase reporter assay): 12 fold
- rates of gene correction [8]: higher rates of gene correction

SMILES: CC(C)n1cnc2c(NCCc3ccc(O)cc3)nc(-c3csc4ccccc34)nc21 [SR1, reference compound]
- engraftment in NSG mice (NSG mice [2]): significant increase
- increase in CD34+ number [4]: 6 fold
